Experimental data as given in patent publication US9695155B2, “Herbicidal substituted pyrimidinyloxy benzene compounds” (E. I. DU PONT DE NEMOURS AND COMPANY, priority 2013, dated 2017).

Tests used:
pigweed = assay: Test D preemergence; format: in vivo, Amaranthus retroflexus; conditions: Amaranthus retroflexus, pre-emergence; for pest or weed control at 16 g/ha: 16 g ai/ha; for pest or weed control at 16 g/ha / pest or weed control at 31 g/ha: scale 0 (no effect) to 100 (complete control), read-out: Plant response rating, Pigweed; for pest or weed control at 31 g/ha: 31 g ai/ha; for pest or weed control at 62 g/ha: 62 g ai/ha; for pest or weed control at 62 g/ha / pest or weed control at 125 g/ha: scale 0-100, read-out: Plant response rating, Pigweed; for pest or weed control at 125 g/ha: 125 g ai/ha
Source text: (§1) Seeds of plant species selected from bluegrass (annual bluegrass, Poa annua), blackgrass (Alopecurus myosuroides), canarygrass (littleseed canarygrass, Phalaris minor), chickweed (common chickweed, Stellaria media), galium (catchweed bedstraw, Galium aparine), bromegrass, downy (downy bromegrass, Bromus tectorum), field poppy (Papaver rhoeas), field violet (Viola arvensis), green foxtail (Setaria viridis), deadnettle (henbit deadnettle, Lamium amplexicaule), Italian ryegrass (Lolium multiflorum), kochia (Kochia scoparia), lambsquarters (Chenopodium album), oilseed rape (Brassica napus), pigweed (Amaranthus retroflexus), chamomile (scentless chamomile, Matricaria inodora), Russian thistle (Salsola kali), speedwell (bird's-eye speedwell, Veronica persica), spring barley (Hordeum vulgare), spring wheat (Triticum aestivum), wild buckwheat (Polygonum convolvulus), wild mustard (Sinapis arvensis), wild oat (Avena fatua), wild radish (Raphanus raphanistrum), windgrass (Apera spica-venti), winter barley (Hordeum vulgare), and winter wheat (Triticum aestivum) were planted into a silt loam soil and treated preemergence with test chemicals formulated in a non-phytotoxic solvent mixture which included a surfactant.
(§2) At the same time, these species were planted in pots containing Redi-Earth® planting medium (Scotts Company, 14111 Scottslawn Road, Marysville, Ohio 43041) comprising spaghnum peat moss, vermiculite, wetting agent and starter nutrients and treated with postemergence applications of the test chemicals formulated in the same manner. Plants ranged in height from 2 to 18 cm (1- to 4-leaf stage). Treated plants and controls were maintained in a controlled growth environment for 7 to 21 days after which time all species were compared to controls and visually evaluated. Plant response ratings, summarized in Table D, are based on a scale of 0 to 100 where 0 is no effect and 100 is complete control. A dash (-) response means no test result.

spring barley = assay: Test D preemergence; format: in vivo, Hordeum vulgare; conditions: Hordeum vulgare, pre-emergence; for plant injury at 16 g/ha: 16 g ai/ha, scale 0 (no effect) to 100 (complete control), read-out: Plant response rating, Barley, Spring; for plant injury at 31 g/ha: 31 g ai/ha; for plant injury at 31 g/ha / plant injury at 62 g/ha / plant injury at 125 g/ha: scale 0-100, read-out: Plant response rating, Barley, Spring; for plant injury at 62 g/ha: 62 g ai/ha; for plant injury at 125 g/ha: 125 g ai/ha
Source text: as §1, §2

winter barley = assay: Test D preemergence; format: in vivo, Hordeum vulgare; conditions: Hordeum vulgare, pre-emergence; for plant injury at 16 g/ha: 16 g ai/ha, scale 0 (no effect) to 100 (complete control), read-out: Plant response rating, Barley, Winter; for plant injury at 31 g/ha: 31 g ai/ha; for plant injury at 31 g/ha / plant injury at 62 g/ha / plant injury at 125 g/ha: scale 0-100, read-out: Plant response rating, Barley, Winter; for plant injury at 62 g/ha: 62 g ai/ha; for plant injury at 125 g/ha: 125 g ai/ha
Source text: as §1, §2

canarygrass = assay: Test D postemergence; format: in vivo, Phalaris minor; conditions: Phalaris minor, post-emergence; for pest or weed control at 16 g/ha: 16 g ai/ha, scale 0-100, read-out: Plant response rating, Canarygrass; for pest or weed control at 31 g/ha: 31 g ai/ha; for pest or weed control at 31 g/ha / pest or weed control at 62 g/ha / pest or weed control at 125 g/ha: scale 0 to 100 (0 no effect, 100 complete control), read-out: Plant response rating, Canarygrass; for pest or weed control at 62 g/ha: 62 g ai/ha; for pest or weed control at 125 g/ha: 125 g ai/ha
Source text: as §1, §2

windgrass = assay: Test D postemergence; format: in vivo, Apera spica-venti; conditions: Apera spica-venti, post-emergence; for pest or weed control at 16 g/ha: 16 g ai/ha, scale 0-100, read-out: Plant response rating, Windgrass; for pest or weed control at 31 g/ha: 31 g ai/ha; for pest or weed control at 31 g/ha / pest or weed control at 62 g/ha / pest or weed control at 125 g/ha: scale 0 to 100 (0 no effect, 100 complete control), read-out: Plant response rating, Windgrass; for pest or weed control at 62 g/ha: 62 g ai/ha; for pest or weed control at 125 g/ha: 125 g ai/ha
Method in brief: (§3)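 Values are 0–100 visual control ratings (0 none, 100 complete) given 7–21 days after application. Soil for preemergence was silt loam; postemergence plants stood 2–18 cm tall.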

galium = assay: Test D preemergence; format: in vivo, Galium aparine; conditions: Galium, pre-emergence; for pest or weed control at 16 g/ha: 16 g ai/ha, scale 0 (no effect) to 100 (complete control), read-out: Plant response rating, Galium; for pest or weed control at 31 g/ha: 31 g ai/ha; for pest or weed control at 31 g/ha / pest or weed control at 62 g/ha / pest or weed control at 125 g/ha: scale 0-100, read-out: Plant response rating, Galium; for pest or weed control at 62 g/ha: 62 g ai/ha; for pest or weed control at 125 g/ha: 125 g ai/ha
Source text: as §1, §2

field poppy [1] = assay: Test D preemergence; format: in vivo, Papaver rhoeas; conditions: Papaver rhoeas, pre-emergence; for pest or weed control at 16 g/ha: 16 g ai/ha, scale 0 (no effect) to 100 (complete control), read-out: Plant response rating, Field Poppy; for pest or weed control at 31 g/ha: 31 g ai/ha; for pest or weed control at 31 g/ha / pest or weed control at 62 g/ha / pest or weed control at 125 g/ha: scale 0-100, read-out: Plant response rating, Field Poppy; for pest or weed control at 62 g/ha: 62 g ai/ha; for pest or weed control at 125 g/ha: 125 g ai/ha
Source text: as §1, §2

oilseed rape = assay: Test D postemergence; format: in vivo, Brassica napus; conditions: Brassica napus, post-emergence; for plant injury at 16 g/ha: 16 g ai/ha, scale 0-100, read-out: Plant response rating, Oilseed Rape; for plant injury at 31 g/ha: 31 g ai/ha; for plant injury at 31 g/ha / plant injury at 62 g/ha / plant injury at 125 g/ha: scale 0 to 100 (0 no effect, 100 complete control), read-out: Plant response rating, Oilseed Rape; for plant injury at 62 g/ha: 62 g ai/ha; for plant injury at 125 g/ha: 125 g ai/ha
Method in brief: as §3

field poppy [2] = assay: Test D postemergence; format: in vivo, Papaver rhoeas; conditions: Papaver rhoeas, post-emergence; for pest or weed control at 16 g/ha: 16 g ai/ha, scale 0-100, read-out: Plant response rating, Field Poppy; for pest or weed control at 31 g/ha: 31 g ai/ha; for pest or weed control at 31 g/ha / pest or weed control at 62 g/ha / pest or weed control at 125 g/ha: scale 0 to 100 (0 no effect, 100 complete control), read-out: Plant response rating, Field Poppy; for pest or weed control at 62 g/ha: 62 g ai/ha; for pest or weed control at 125 g/ha: 125 g ai/ha
Source text: as §1, §2

Row | SMILES | pest or weed control at 16 g/ha (pigweed) [%] | pest or weed control at 31 g/ha (pigweed) [%] | pest or weed control at 62 g/ha (pigweed) [%] | pest or weed control at 125 g/ha (pigweed) [%] | plant injury at 16 g/ha (spring barley) [%] | plant injury at 31 g/ha (spring barley) [%] | plant injury at 62 g/ha (spring barley) [%] | plant injury at 125 g/ha (spring barley) [%] | plant injury at 16 g/ha (winter barley) [%] | plant injury at 31 g/ha (winter barley) [%] | plant injury at 62 g/ha (winter barley) [%] | plant injury at 125 g/ha (winter barley) [%] | pest or weed control at 16 g/ha (canarygrass) [%] | pest or weed control at 31 g/ha (canarygrass) [%] | pest or weed control at 62 g/ha (canarygrass) [%] | pest or weed control at 125 g/ha (canarygrass) [%] | pest or weed control at 16 g/ha (windgrass) [%] | pest or weed control at 31 g/ha (windgrass) [%] | pest or weed control at 62 g/ha (windgrass) [%] | pest or weed control at 125 g/ha (windgrass) [%] | other results
1 | FC(F)(F)COc1cnn(-c2ccccc2Oc2ncc(Cl)cn2)c1 [Compound 138, 5-chloro-2-[2-[4-(2,2,2-trifluoroethoxy)-1H-pyrazol-1-yl]phenoxy]pyrimidine] | 0 | 25 | 100 | 100 | 10 | 10 | 10 | 15 | 0 | 0 | 5 | 15 | 5 | 10 | 10 | 15 | 0 | 0 | 15 | 20 | pest or weed control at 16 g/ha (galium): 25%; pest or weed control at 31 g/ha (galium): 40%; pest or weed control at 62 g/ha (galium): 90%; pest or weed control at 125 g/ha (galium): 100%; pest or weed control at 16 g/ha (field poppy [1]): 100%; pest or weed control at 31 g/ha (field poppy [1]): 100%; pest or weed control at 62 g/ha (field poppy [1]): 100%; pest or weed control at 125 g/ha (field poppy [1]): 100%; plant injury at 16 g/ha (oilseed rape): 70%; plant injury at 31 g/ha (oilseed rape): 70%; plant injury at 62 g/ha (oilseed rape): 75%; plant injury at 125 g/ha (oilseed rape): 75%; pest or weed control at 16 g/ha (field poppy [2]): 30%; pest or weed control at 31 g/ha (field poppy [2]): 35%; pest or weed control at 62 g/ha (field poppy [2]): 40%; pest or weed control at 125 g/ha (field poppy [2]): 75%
2 | FC(F)(F)c1cn(-c2ccccc2Oc2ncc(Cl)cn2)nn1 [Compound 166, 5-chloro-2-[2-[4-(trifluoromethyl)-1H-1,2,3-triazol-1-yl]phenoxy]pyrimidine] | 100 | 100 | 100 | 100 | 0 | 0 | 30 | 60 | 0 | 0 | 35 | 50 | 20 | 35 | 50 | 55 | 15 | 25 | 35 | 55 | pest or weed control at 16 g/ha (galium): 65%; pest or weed control at 31 g/ha (galium): 80%; pest or weed control at 62 g/ha (galium): 100%; pest or weed control at 125 g/ha (galium): 100%; pest or weed control at 16 g/ha (field poppy [1]): 100%; pest or weed control at 31 g/ha (field poppy [1]): 100%; pest or weed control at 62 g/ha (field poppy [1]): 100%; pest or weed control at 125 g/ha (field poppy [1]): 100%; plant injury at 16 g/ha (oilseed rape): 60%; plant injury at 31 g/ha (oilseed rape): 65%; plant injury at 62 g/ha (oilseed rape): 95%; plant injury at 125 g/ha (oilseed rape): 100%; pest or weed control at 16 g/ha (field poppy [2]): 40%; pest or weed control at 31 g/ha (field poppy [2]): 60%; pest or weed control at 62 g/ha (field poppy [2]): 80%; pest or weed control at 125 g/ha (field poppy [2]): 75%
